Values quoted from earlier work as cited in PubChem BioAssay AID1259409 (Chemical Carcinogenesis Research Information System (CCRIS), 2018).
Several values for one entry are separate records, joined by “and”; a condition that tells them apart may be missing. Identical values can stand only once.

Test system: rodent chemically induced tumor inhibition, incidence and multiplicity
Experiment: CCRIS tumor inhibitor studies

O=C(c1ccc(OCCN2CCCCC2)cc1)c1c(-c2ccc(O)cc2)sc2cc(O)ccc12
tumour outcome (control, treated, inhibition, significance) (Carcinogen: 7,12-DIMETHYLBENZ[A]ANTHRACENE (DMBA) [57-97-6], Dose [Inhibitor]: 50 MG/KG/D FOR 37 WK (STUDY DURATION: 37 WK), Route [Inhibitor]: ORAL GAVAGE, Species: MOUSE, Strain/Sex: SENCAR/FEMALE, Target Tissue: Type of Lesion: MAMMARY: CARCINOMA, Dose [Carcinogen]: 20 UG/D FOR 6 WKS (STUDY DURATION: 37 WKS), Promoter: MEDROXYPROGESTERONE ACETATE (71-58-9)): 10/21 (48%); 5/17 (29%), 40%, p=0.20 | tumour outcome (control, treated, inhibition, significance) (Carcinogen: ESTRADIOL, 50-28-2, Dose [Inhibitor]: 0, 25 MG PELLET 2 PELLETS IMPLANTED EVERY 3 MO BEGINNING 15 D PRIOR TO CARCINOGEN DOSE (STUDY DURATION: 8 MO), Route [Inhibitor]: SUBCUTANEOUS IMPLANT, Species: HAMSTER, Strain/Sex: SYRIAN/MALE, Target Tissue: Type of Lesion: KIDNEY: TUMOR, Dose [Carcinogen]: 25 MG PELLET IMPLANTED EVERY 3 MO, Promoter: NONE USED): 5/5 (100%), 3/4 (75%), 25%, not significant | tumour outcome (control, treated, inhibition, significance) (Carcinogen: N-METHYL-N-NITROSOUREA, 684-93-5, Dose [Inhibitor]: 0, 5 MG/KG BW/D 2/WK TO DORSAL AREA STARTING 10 D BEFORE CARCINOGEN TREATMENT FOR THE DURATION OF THE STUDY (STUDY DURAT, Route [Inhibitor]: SUBCUTANEOUSLY, Species: RAT, Strain/Sex: SPRAGUE-DAWLEY/FEMALE, Target Tissue: Type of Lesion: MAMMARY GLAND: TUMOR, Dose [Carcinogen]: 50 MG/KG BW 2/WK FOR 1 WK BW 43-54 POSTNATAL DAYS): 80%, 26%, 67%, p<0.001 | tumour outcome (control, treated, inhibition, significance) (Carcinogen: N-METHYL-N-NITROSOUREA, 684-93-5, Dose [Inhibitor]: 0, 20 MG/KG OF DIET FOR DURATION OF STUDY BEGINNING 1 WK POST CARCINOGEN DOSE (STUDY DURATION: 5 MO), Route [Inhibitor]: ORAL, Species: RAT, Strain/Sex: SPRAGUE-DAWLEY/FEMALE, Target Tissue: Type of Lesion: MAMMARY GLAND: TUMOR, Dose [Carcinogen]: 50 MG/KG BW ONCE, Promoter: NONE USED): 23/24 (96%), 10/12 (83%), 14%, p=0.26 and 29/30 (97%), 14/30 (47%), 52%, p=0.0001 | tumour outcome (control, treated, inhibition, significance) (Carcinogen: N-METHYL-N-NITROSOUREA, 684-93-5, Dose [Inhibitor]: 0, 60 MG/KG OF DIET FOR DURATION OF STUDY BEGINNING 1 WK POST CARCINOGEN DOSE (STUDY DURATION: 5 MO), Route [Inhibitor]: ORAL, Species: RAT, Strain/Sex: SPRAGUE-DAWLEY/FEMALE, Target Tissue: Type of Lesion: MAMMARY GLAND: TUMOR, Dose [Carcinogen]: 50 MG/KG BW ONCE, Promoter: NONE USED): 23/24 (96%), 8/12 (67%), 30%, p=0.03 and 29/30 (97%), 15/30 (50%), 48%, p=0.0002

CC(O)CCC(=O)c1cccs1 (stereo not given)
tumour outcome (control, treated, inhibition, significance) (Carcinogen: 4-(METHYLNITROSAMINO)-1-(3-PYRIDYL)-1-BUTANONE, 64091-91-4, Dose [Inhibitor]: 0, 25 UMOL IN 0.1 ML CORN OIL ONCE 2 HR PRIOR TO CARCINOGEN DOSE (STUDY DURATION: 16 WK), Route [Inhibitor]: GAVAGE, Species: MOUSE, Strain/Sex: STRAIN-A/FEMALE, Target Tissue: Type of Lesion: LUNG: ADENOMA, Dose [Carcinogen]: 10 UMOL IN 0.1 ML SALINE ONCE, Promoter: NONE USED): 100%, 100%, 0%, not significant

Cn1cnc2[nH]c(=O)[nH]c(=O)c21
tumour outcome (control, treated, inhibition, significance) (Carcinogen: URETHANE, 51-79-6, Dose [Inhibitor]: 0.05 UMOL/G BW GIVEN AT 6 HR INTERVALS DURING THE PERIOD OF 0 TO 36 HR AFTER CARCINOGEN TREATMENT FOLLOWED BY 5 MO OBSER, Route [Inhibitor]: INTRAPERITONEAL, Species: MOUSE, Strain/Sex: ICR/FEMALE, Target Tissue: Type of Lesion: LUNG: PAPILLARY ADENOMA, Dose [Carcinogen]: 0.1 MG/G BW ONCE, Promoter: NONE USED): 31/59 (53%), 18/48 (38%), 28%, p 0.12 | tumour outcome (control, treated, inhibition, significance) (Carcinogen: URETHANE, 51-79-6, Dose [Inhibitor]: 0.25 UMOL/G BW 1/D DURING THE PERIOD OF 5 TO 9 D AFTER CARCINOGEN TREATMENT FOLLOWED BY OBSERVATION PERIOD UNTIL END OF, Route [Inhibitor]: INTRAPERITONEAL, Species: MOUSE, Strain/Sex: ICR/FEMALE, Target Tissue: Type of Lesion: LUNG: PAPILLARY ADENOMA, Dose [Carcinogen]: 1 MG/G BW ONCE, Promoter: NONE USED): 49/53 (93%), 43/62 (69%), 26%, p<0.01

CCOC(=S)S
tumour outcome (control, treated, inhibition, significance) (Carcinogen: N-NITROSO-DIETHYLAMINE, 55-18-5, Dose [Inhibitor]: 12.5 MG/KG IN DRINKING WATER ADMINISTERED SIMULTANEOUSLY WITH CARCINOGEN (STUDY DURATION: 28 WK), Route [Inhibitor]: ORAL, Species: RAT, Strain/Sex: BD6/MALE, Target Tissue: Type of Lesion: LIVER: TUMOR, Dose [Carcinogen]: 80 MG/KG 1/WK FOR 10 WK, Promoter: NONE USED): 12/14 (86%), 10/14 (71%), 16%, p>0.05 | tumour outcome (control, treated, inhibition, significance) (Carcinogen: N-NITROSO-DIETHYLAMINE, 55-18-5, Dose [Inhibitor]: 25 MG/KG IN DRINKING WATER PLUS 100 MG/KG 1 HR BEFORE CARCINOGEN ADMINISTERED SIMULTANEOUSLY WITH CARCINOGEN (STUDY DURA, Route [Inhibitor]: ORAL, Species: RAT, Strain/Sex: BD6/MALE, Target Tissue: Type of Lesion: LIVER: TUMOR, Dose [Carcinogen]: 80 MG/KG 1/WK FOR 10 WK, Promoter: NONE USED): 12/14 (86%), 6/12 (50%), 42%, p<0.05

C=C1/C(=C\C=C2/CCC[C@]3(C)[C@@H]([C@H](C)CC[C@@H](CC)C(C)C)CC[C@@H]23)C[C@@H](O)C[C@@H]1O
tumour outcome (control, treated, inhibition, significance) (Carcinogen: 7,12-DIMETHYLBENZ[A]ANTHRACENE (57-97-6), Dose [Inhibitor]: 40 MG/KG DIET 1 WK AFTER CARCINOGEN TO END, Route [Inhibitor]: DIET, Species: RAT, Strain/Sex: SPRAGUE-DAWLEY/FEMALE, Target Tissue: Type of Lesion: MAMMARY GLAND: TUMOR, Dose [Carcinogen]: 15 MG AT 50 D OF AGE, ONCE): 85%, 50%, 41%, p<0.05 | tumour outcome (control, treated, inhibition, significance) (Carcinogen: 7,12-DIMETHYLBENZ[A]ANTHRACENE (57-97-6), Dose [Inhibitor]: 40 MG/KG DIET 2 WKS BEFORE CARCINOGEN AND 1 WK AFTER CARCINOGEN, Route [Inhibitor]: DIET, Species: RAT, Strain/Sex: SPRAGUE-DAWLEY/FEMALE, Target Tissue: Type of Lesion: MAMMARY GLAND: TUMOR, Dose [Carcinogen]: 15 MG AT 50 D OF AGE, ONCE): 85%, 70%, 18%, not significant | tumour outcome (control, treated, inhibition, significance) (Carcinogen: 7,12-DIMETHYLBENZ[A]ANTHRACENE (57-97-6), Dose [Inhibitor]: 40 MG/KG DIET 2 WKS BEFORE CARCINOGEN TO END, Route [Inhibitor]: DIET, Species: RAT, Strain/Sex: SPRAGUE-DAWLEY/FEMALE, Target Tissue: Type of Lesion: MAMMARY GLAND: TUMOR, Dose [Carcinogen]: 15 MG AT 50 D OF AGE, ONCE): 85%, 50%, 41%, not calculated | outcome (Carcinogen: AZOXYMETHANE (25843-45-2), Dose [Inhibitor]: 25 UG/KG DIET 2 WKS AFTER CARCINOGEN TO END (STUDY DURATION: 10 WKS), Route [Inhibitor]: DIET, Species: MOUSE, Strain/Sex: CF-1, Target Tissue: Type of Lesion: COLON: TOTAL ABERRANT CRYPT FOCI (SURROGATE FOR COLON TUMOR), Dose [Carcinogen]: 10 MG/KG BW WEEKLY FOR 2 WKS (STUDY DURATION: 10 WKS)): 9.6, 2.0, 79%, not calculated | outcome (Carcinogen: AZOXYMETHANE (25843-45-2), Dose [Inhibitor]: 25 UG/KG DIET 2 WKS BEFORE CARCINOGEN TO 2 WKS AFTER (STUDY DURATION: 10 WKS), Route [Inhibitor]: DIET, Species: MOUSE, Strain/Sex: CF-1, Target Tissue: Type of Lesion: COLON: TOTAL ABERRANT CRYPT FOCI (SURROGATE FOR COLON TUMOR), Dose [Carcinogen]: 10 MG/KG BW WEEKLY FOR 2 WKS (STUDY DURATION: 10 WKS)): 9.6, 2.8, 71%, not calculated | outcome (Carcinogen: AZOXYMETHANE (25843-45-2), Dose [Inhibitor]: 25 UG/KG DIET 2 WKS BEFORE CARCINOGEN TO END (STUDY DURATION: 10 WKS), Route [Inhibitor]: DIET, Species: MOUSE, Strain/Sex: CF-1, Target Tissue: Type of Lesion: COLON: TOTAL ABERRANT CRYPT FOCI (SURROGATE FOR COLON TUMOR), Dose [Carcinogen]: 10 MG/KG BW WEEKLY FOR 2 WKS (STUDY DURATION: 10 WKS)): 9.6, 1.8, 81%, not calculated | outcome (Carcinogen: AZOXYMETHANE (25843-45-2), Dose [Inhibitor]: 25 UG/KG DIET 7 D BEFORE CARCINOGEN TO END OF STUDY, Route [Inhibitor]: DIET, Species: MOUSE, Strain/Sex: CF-1, Target Tissue: Type of Lesion: COLON: ABERRANT CRYPT FOCI (SURROGATE FOR COLON TUMOR), Dose [Carcinogen]: 10 MG/KG BW WEEKLY FOR 2 WKS): 29%, 1.4, 95%, p<0.001 | outcome (Carcinogen: N-METHYL-N-NITROSOUREA ( 684-93-5), Dose [Inhibitor]: 0, 25, 50 UG/KG DIET 2 WKS BEFORE CARCINOGEN CONTINUING FOR 120 D (STUDY DURATION: 120 D), Dose [Inhibitor]: 0, 25, 50 UG/KG DIET 2 WKS BEFORE CARCINOGEN CONTINUING FOR 120 D (STUDY DURATION: 120 D), Route [Inhibitor]: DIET, Species: RAT, Strain/Sex: SPRAGUE-DAWLEY/FEMALE, Target Tissue: Type of Lesion: MAMMARY GLAND: TUMOR, Dose [Carcinogen]: 50 MG/KG BW ONCE): 80%, 53%, 34%, not calculated; 47%, 41%, not calculated | tumour outcome (control, treated, inhibition, significance) (Carcinogen: N-METHYL-N-NITROSOUREA, 684-93-5, Dose [Inhibitor]: 0, 25 UG/KG DIET AT 65 D OF AGE FOR THE DURATION OF THE STUDY (STUDY DURATION: 120 D), Route [Inhibitor]: ORAL, Species: RAT, Strain/Sex: SPRAGUE-DAWLEY, Target Tissue: Type of Lesion: MAMMARY GLAND: TUMOR, Dose [Carcinogen]: 50 MG/KG BW ONCE AT 80 D OF AGE, Promoter: NONE): 12/15 (80%), 8/15 (53%), 33%, not significant | tumour outcome (control, treated, inhibition, significance) (Carcinogen: N-METHYL-N-NITROSOUREA, 684-93-5, Dose [Inhibitor]: 0, 50 UG/KG DIET AT 65 D OF AGE FOR THE DURATION OF THE STUDY (STUDY DURATION: 120 D), Route [Inhibitor]: ORAL, Species: RAT, Strain/Sex: SPRAGUE-DAWLEY, Target Tissue: Type of Lesion: MAMMARY GLAND: TUMOR, Dose [Carcinogen]: 50 MG/KG BW ONCE AT 80 D OF AGE, Promoter: NONE): 12/15 (80%), 7/15 (47%), 41%, p=0.03
